# Experimental data reported in patent US7906655B2, “Hepatitis C virus inhibitors” (Bristol-Myers Squibb Company, priority 2008, dated 2011).
# System: HCV 1b genotype
# Assay: HCV Replicon assay (HCV-neo replicon cells, wild-type)
# Assay type: cell-based
# Details: HCV 1b genotype replicon, class symbols
# How it was run: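 Assay used wild-type HCV genotype 1b replicon cells carrying neo, with luciferase reporter read-outs in some formats.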
structure (smiles),measurement,setting,value
"CN(C)[C@@H](C(=O)N1CCC[C@H]1c1nc2cc(C#Cc3ccc4nc([C@@H]5CCCN5C(=O)[C@@H](c5ccccc5)N(C)C)[nH]c4c3)ccc2[nH]1)c1ccccc1 [Example M19, (1R)-2-((2S)-2-(5-((2-((2S)-1-((2R)-2-(dimethylamino)-2-phenylacetyl)-2-pyrrolidinyl)-1H-benzimidazol-6-yl)ethynyl)-1H-benzimidazol-2-yl)-1-pyrrolidinyl)-N,N-dimethyl-2-oxo-1-phenylethanamine]",EC50,Hepatitis C virus,< 4.57 nM
"O=CN[C@@H](C(=O)N1CCC[C@H]1c1nc2cc(C#Cc3ccc4[nH]c([C@@H]5CCCN5C(=O)[C@H](NC=O)c5ccccc5)nc4c3)ccc2[nH]1)c1ccccc1 [Example M20, N,N′-(1,2-ethynediylbis(1H-benzimidazole-5,2-diyl(2S)-2,1-pyrrolidinediyl((1R)-2-oxo-1-phenyl-2,1-ethanediyl)))diformamide]",EC50,Hepatitis C virus,< 4.57 nM
"CC(=O)N[C@@H](C(=O)N1CCC[C@H]1c1nc2cc(C#Cc3ccc4nc([C@@H]5CCCN5C(=O)[C@H](NC(C)=O)c5ccccc5)[nH]c4c3)ccc2[nH]1)c1ccccc1 [Example M21, N-((1R)-2-((2S)-2-(5-((2-((2S)-1-((2R)-2-acetamido-2-phenylacetyl)-2-pyrrolidinyl)-1H-benzimidazol-6-yl)ethynyl)-1H-benzimidazol-2-yl)-1-pyrrolidinyl)-2-oxo-1-phenylethyl)acetamide]",EC50,Hepatitis C virus,< 4.57 nM
"O=C([C@@H](c1ccccc1)N1CCOCC1)N1CCC[C@H]1c1nc2cc(C#Cc3ccc4[nH]c([C@@H]5CCCN5C(=O)[C@@H](c5ccccc5)N5CCOCC5)nc4c3)ccc2[nH]1 [Example M22, 5,5′-(1,2-ethynediyl)bis(2-((2S)-1-((2R)-2-(4-morpholinyl)-2-phenylacetyl)-2-pyrrolidinyl)-1H-benzimidazole)]",EC50,Hepatitis C virus,< 4.57 nM
"COC(=O)N[C@@H](C(=O)N1CCC[C@H]1c1nc2cc(C#Cc3ccc4[nH]c([C@@H]5CCCN5C(=O)[C@H](NC(=O)OC)c5ccccc5)nc4c3)ccc2[nH]1)c1ccccc1 [Example M23, dimethyl (1,2-ethynediylbis(1H-benzimidazole-5,2-diyl(2S)-2,1-pyrrolidinediyl((1R)-2-oxo-1-phenyl-2,1-ethanediyl)))biscarbamate]",EC50,Hepatitis C virus,< 4.57 nM
"COC(=O)N[C@H](C(=O)N1CCC[C@H]1c1nc2cc(C#Cc3ccc4[nH]c([C@@H]5CCCN5C(=O)[C@@H](NC(=O)OC)C(C)C)nc4c3)ccc2[nH]1)C(C)C [Example M24, methyl ((1S)-1-(((2S)-2-(5-((2-((2S)-1-((2S)-2-((methoxycarbonyl)amino)-3-methylbutanoyl)-2-pyrrolidinyl)-1H-benzimidazol-5-yl)ethynyl)-1H-benzimidazol-2-yl)-1-pyrrolidinyl)carbonyl)-2-methylpropyl)carbamate]",EC50,Hepatitis C virus,< 4.57 nM
"COC(=O)N[C@@H](C)C(=O)N1CCC[C@H]1c1nc2cc(C#Cc3ccc4[nH]c([C@@H]5CCCN5C(=O)[C@H](C)NC(=O)OC)nc4c3)ccc2[nH]1 [Example M25, methyl ((1S)-2-((2S)-2-(5-((2-((2S)-1-(N-(methoxycarbonyl)-L-alanyl)-2-pyrrolidinyl)-1H-benzimidazol-5-yl)ethynyl)-1H-benzimidazol-2-yl)-1-pyrrolidinyl)-1-methyl-2-oxoethyl)carbamate]",EC50,Hepatitis C virus,4.57 to 99 nM
"COC(=O)N[C@H](C)C(=O)N1CCC[C@H]1c1nc2cc(C#Cc3ccc4[nH]c([C@@H]5CCCN5C(=O)[C@@H](C)NC(=O)OC)nc4c3)ccc2[nH]1 [Example M26, methyl ((1R)-2-((2S)-2-(5-((2-((2S)-1-(N-(methoxycarbonyl)-D-alanyl)-2-pyrrolidinyl)-1H-benzimidazol-5-yl)ethynyl)-1H-benzimidazol-2-yl)-1-pyrrolidinyl)-1-methyl-2-oxoethyl)carbamate]",EC50,Hepatitis C virus,< 4.57 nM
"O=C(c1cccnc1)N1CCC[C@H]1c1nc2cc(C#Cc3ccc4[nH]c([C@@H]5CCCN5C(=O)c5cccnc5)nc4c3)ccc2[nH]1 [Example M26.1, N,N′-(1,2-ethynediyl)bis(2-((2S)-1-(3-pyridinylcarbonyl)-2-pyrrolidinyl)-1H-benzimidazole)]",EC50,,100 to 999 nM
